Source: US12275766B2, “Neoantigen peptide mimics” (Janssen Biotech, Inc., priority 2020, dated 2025)
Ends that are not written are not given here.

What was measured:
[1] = system: CD8+ T cells from HLA-02:01+ PBMCs; experiment: Frequency of double positive T cells for mimic and mutant tetramers (flow cytometry); format: cell-based, human
Method: Preparation of PBMCs: Vials of HLA-02:01^+ PBMCs frozen from donors (Hemacare) were removed from LN2 storage and rapidly thawed in a 37° C. water bath. The cells were transferred to a 50 mL conical tube containing 40 mL warm media (RPMI 1640 medium+10% fetal bovine serum (FBS)+1% Penicillin streptomycin solution), spun at 1300 rpm for 5 minutes at room temperature. The cell pellet was resuspended in 2 mL EASYSEP™ buffer and cells were counted using trypan blue live dead marker using a haemocytometer.
Enrichment of CD8+ T cells: To enrich the CD8+ T cells from the PBMCs, EASYSEP™ Human CD8+ T Cell Isolation Kit was used as per the manufacturer's instructions. Post enrichment, the cell pellet was resuspended in Dulbecco's phosphate-buffered saline (DPBS) and cells were counted as above. To determine the viability, LIVE/DEAD™ Fixable Violet Dead Cell Stain Kit was used at 0.5 μL/1×10^6/100 μL cell suspension and incubated at room temperature for 20 minutes. At the end of incubation period, FACS buffer (DPBS+2% FBS) was added and the cells were spun at 1300 rpm for 5 minutes at room temperature. The cell pellet was resuspended in FACS buffer, trypan blue was added, and the cell count was determined using a haemocytometer. The cell density was maintained at 1×10^6/50 μL FACS buffer. 3 μL Fc block was added per 1×10^6 cells and incubated for 10 minutes at room temperature in the dark. At the end of the incubation, mimic tetramer and the corresponding mutant tetramers were added at 3 μL tetramer/1×10^6 cells.
For frequency determination, 2×10^6 cells were used for test samples and 1×10^6 cells were used for control samples where negative tetramers were added in place of the mimic or mutant tetramers. A sample where no tetramers were added was kept as unstained control. The samples were incubated at room temperature for 30 minutes in dark. At the end of incubation period, CD8 antibody was added at 2 μL/1×10^6 cells and the samples were incubated for another 30 minutes at room temperature in dark. At the end of incubation, FACS buffer was added to the samples and the samples were spun at 1300 rpm for 5 minutes. The pellet was resuspended in 5 mL FACS buffer and the cells were spun at 1300 rpm for 5 minutes. The pellet was resuspended in 200 μL FACS buffer and events were acquired using the Novocyte flow cytometer.
The cells were acquired on the Novocyte flow cytometer and gated on forward scatter height (FSC-H) versus side scatter height (SSC-H). The cells high on FSC-H versus SSC-H were gated as lymphocytes. From the lymphocytes, live cells were gated by selecting the pacific blue negative cells on an FSC-H versus Pacific Blue-H plot. From the live cells, single cells were gated on FSC-H versus forward scatter area (FSC-A). CD8+ T cells were gated from the singlets as Alexa Fluor 700 positive cells. For gating phycoerythrin (PE) conjugated tetramer positive cells, the CD8^+ cells were gated on Alexa Fluor 700-H versus PE-H and the double positive cells were considered as CD8+ tetramer+. For gating allophycocyanin (APC) conjugated tetramer positive cells, the CD8^+ cells were gated on Alexa Fluor 700-H versus APC-H and the double positive cells were considered as CD8+tetramer+. All gates were set using the negative tetramers to eliminate non-specific binding. The dual positive cells that were mimic and mutant tetramer positive cells were gated by plotting PE-H versus APC-H within the CD8^+ cells.

[2] = target: HLA-A*02:01 (Homo sapiens, UniProt P04439, D140Y/D185E/D98H/E176V/E277Q/G131W/G231S/I119V/I121R/I166T/I218V/L300P/L318F/N151K/N90K/P208A/P217A/Q86G/Q94H/R138H/R169H/T345S); format: binding

| Substance | Frequency (%) of double positive T cells within CD8+ compartment of donors ([1]; Donor ID 20001476) | Frequency (%) of double positive T cells within CD8+ compartment of donors ([1]; Donor ID 20001487) | Frequency (%) of double positive T cells within CD8+ compartment of donors ([1]; Donor ID 20061357) | Frequency (%) of double positive T cells within CD8+ compartment of donors ([1]; Donor ID 20061599) | Frequency (%) of double positive T cells within CD8+ compartment of donors ([1]; Donor ID 20061661) | Frequency (%) of double positive T cells within CD8+ compartment of donors ([1]; Donor ID 20062224) | Frequency (%) of double positive T cells within CD8+ compartment of donors ([1]; Donor ID 20062384) | also measured |
| --- | --- | --- | --- | --- | --- | --- | --- | --- |
| Mutant (SEQ ID NO: 16) Mimic (SEQ ID NO: 64): pair of tetramers loaded with mutant ALNNMFCQL (PE) and mimic ALNNMFCQV (APC) (not fully specified; cysteine pairing not given here) | 0.021% | 0.000% | 0.002% | 0.000% | 0.000% | 0.016% | 0.000% |  |
| Mutant (SEQ ID NO: 13) Mimic (SEQ ID NO: 59): pair of tetramers loaded with mutant KTYPVQLWV (APC) and mimic KMYPVQLWL (PE) (not fully specified) |  |  |  |  |  |  |  | Frequency (%) of double positive T cells within CD8+ compartment of donors ([1]; Donor ID 17042380): 0.04%; Frequency (%) of double positive T cells within CD8+ compartment of donors ([1]; Donor ID 17042765): 0.13%; Frequency (%) of double positive T cells within CD8+ compartment of donors ([1]; Donor ID 18047563): 0.01%; Frequency (%) of double positive T cells within CD8+ compartment of donors ([1]; Donor ID 19053796): 0.06%; Frequency (%) of double positive T cells within CD8+ compartment of donors ([1]; Donor ID 19054141): 0.02%; Frequency (%) of double positive T cells within CD8+ compartment of donors ([1]; Donor ID 19054183): 0.01%; Frequency (%) of double positive T cells within CD8+ compartment of donors ([1]; Donor ID 19054445): 0.38%; Frequency (%) of double positive T cells within CD8+ compartment of donors ([1]; Donor ID 19054456): 0%; T-cells positive for mutant-mimic pair ([1]; donor 17042765, frequency of double positive T cells at least 2-fold higher than the background (negative tetramers)): positive; T-cells positive for mutant-mimic pair ([1]; donor 19053796): positive; T-cells positive for mutant-mimic pair ([1]; donor 19054445, frequency of double positive T cells at least 2-fold higher than the background (negative tetramers)): positive |
| Mutant (SEQ ID NO: 22) Mimic (SEQ ID NO: 75): pair of tetramers loaded with mutant LLGRNSFEM (PE) and mimic LLGRNSFEL (APC) (not fully specified) | 0.000% | 0.000% | 0.004% | 0.000% | 0.000% | 0.015% | 0.000% |  |
| 7 (LVVVGAVGV) [compound 7] |  |  |  |  |  |  |  | Average % ([2]; average of Exch I and Exch II, relative to exchange control peptide Pos (100%)): 4.5%; Exch I (%) ([2]; first UV-induced peptide exchange, absorbance relative to exchange control peptide Pos (100%)): 4.3%; Exch II (%) ([2]; second UV-induced peptide exchange, absorbance relative to exchange control peptide Pos (100%)): 4.6% |
| Mutant (SEQ ID NO: 2) Mimic (SEQ ID NO: 29): pair of tetramers loaded with mutant YLDCGIHSG (APC) and mimic YLDCGIHSV (PE) (not fully specified; cysteine pairing not given here) | 0.075% | 0.000% | 0.095% | 0.000% | 0.000% | 0.000% | 0.000% |  |
